Assay results from patent US11780868B1, “Homoleptic metal coordination complexes as antifungal agents” (King Abdulaziz University, priority 2023, dated 2023).
Values after ≈ are worked out from the molar mass of the structure shown.

Legend:
C. albicans 4251 [1] = assay: JC-10 mitochondrial membrane potential assay; format: cell-based, Candida albicans; details: C. albicans 4251, H2O2 treated positive control; negative control 2.65
Experimental: (§1) To examine the effect of C1 on the induction of cellular apoptosis in C. albicans cells, crucial apoptotic markers were observed. For this purpose, C. albicans 4251 and C. albicans 5112 cells were subjected to protoplast preparation by utilizing a method described previously by Srivastava et al. in 2020 through their research study. […] Later on, the cells were washed and incubated for 10 min at room temperature in protoplast buffer-1 (1M sorbitol, 0.05M tris base, 0.01M MgCl2, 0.03M DTT, pH 7.4). The cells were spun at 1500 rpm for 5 min and the pellet was resuspended in protoplast buffer-2 (1M sorbitol, 0.05M tris base, 0.01M MgCl2, 0.001M DTT, pH 7.4) supplemented with […] enzyme (1 μg/mL) and incubated for 1 h at room temperature. Afterwards, the cell suspension was again centrifuged, and the pellet was resuspended and incubated for 20 min at room temperature in protoplast buffer-3 (1M sorbitol, 0.05M tris base, 0.01M MgCl2, pH 7.4). A final washing (1500 rpm for 5 min) was given to the cells and the pellet consisting of C. albicans protoplasts was resuspended in fresh PBS and was stored at 4° C. until further use. Measurement of mitochondrial membrane potential in C. albicans was carried out and the potential of C1 in destabilising mitochondrial membrane potential (Δψm) in C. albicans was established by JC-10 mitochondrial membrane potential assay kit (Abeam, Cambridge, UK). The experiment was performed according to manufacturer instructions. 90 μL of prepared protoplast of C. albicans 4251 and C. albicans 5112 was added to a 96-well microplate (with black walls and clear bottom), followed by the addition of 50 μL/well of JC-10 dye-loading solution. The microplate was incubated for 1 hour at 37° C. in the dark. This was followed by the addition of 50 μL/well of assay buffer B. The microplate was then immediately centrifuged at 800 rpm for 2 minutes. The fluorescence intensity was monitored at an Ex/Em=490/530 nm (present in apoptotic cells, monomeric form and green fluorescence; represented as X) and 540/590 nm (present in live cells, dye aggregates and red fluorescence; represented as Y) using a SpectraMax® ID3 Multimode Plate Reader (Molecular Devices, LLC., USA). The ratio between the aggregate and monomeric forms was measured to find the change in mitochondrial membrane potential. The mitochondrial membrane depolarization is indicated by decreasing ratio values.

C. albicans 5112 [2] = assay: JC-10 mitochondrial membrane potential assay; format: cell-based, Candida albicans; details: C. albicans 5112, H2O2 treated positive control; negative control 2.92
Experimental: as §1

C. albicans 4251 [3] = assay: Cell count and viability assay (Muse cell analyser); format: cell-based, Candida albicans; details: C. albicans 4251, hydrogen peroxide 10 mM 1:1 with inoculum, 24 h; untreated 90.9%
Experimental: (§2) Quantification of Live/Dead C. albicans cells in response to C1 was carried out. The actual count of viable and dead cells of C. albicans by treatment of C1 was monitored by Cell Count and Viability assay kit. An inoculum (1×10^6 cells/mL) of both Flz sensitive (C. albicans 4251) and resistant (C. albicans 5112) C. albicans strains was prepared followed by treatment with various concentrations of C1 (0.5×MIC, 1×MIC and MFC) for 24 h at 37° C. and 150 rpm. For the negative control, only inoculum treated with 1% DMSO was used and for the positive control, hydrogen peroxide (10 mM) was used in a 1:1 ratio with the inoculum. Following incubation, the cells were then washed in PBS and centrifuged at 4000 rpm for 5 minutes at 4° C. and the final pellet was resuspended in PBS. The Cell Count and Viability assay samples were prepared by mixing 190 μL of Luminex Cell Viability Dilution Buffer and 10 μL of the sample in a 1.5 mL Eppendorf tube and incubated in the dark for 5 min at room temperature. All samples were analysed by a Guava® Muse® Cell Analyser (Luminex A DiaSorin Company, USA).

C. albicans 5112 [4] = assay: as above; format: cell-based, Candida albicans; details: C. albicans 5112, hydrogen peroxide 10 mM 1:1 with inoculum, 24 h; untreated 86.8%
Experimental: as §2

C. albicans 4251 [5] = assay: Cell cycle analysis (Muse cell analyser); format: cell-based, Candida albicans; details: 10 mM H2O2 positive control; stated for C. albicans without naming a strain
Experimental: The effect of C1 on the cell cycle of C. albicans 4251 and C. albicans 5112 was determined using Cell Cycle kit MCH100106 in a Guava® Muse® Cell Analyser according to the manufacturer's instructions. The cells of the C. albicans (1×10^6 cells/mL) were exposed to C1 for 4 h at different concentrations (0.5×MIC and 1×MIC). Each sample was rinsed with fresh PBS after exposure, and the pellet was fixed in 1 mL of 70% ice-cold ethanol (Sigma Aldrich Co., USA). The Cell Cycle assay was prepared by mixing the 100 μL of Luminex® Cell Cycle dye and 100 μL of the prewashed fixed cells and incubated in the dark for 30 minutes at room temperature. All samples were analysed by a Guava® Muse® Cell Analyser (Luminex® A DiaSorin Company, USA). During the experiment, both the negative (without treatment) and positive control (10 mM H2O2 treated) were used.

C. albicans SC5314 = assay: Broth microdilution MIC/MFC (CLSI M27-A4); format: cell-based, Candida albicans; details: Candida albicans; C. albicans SC5314 (control), 37° C., 24 h; read-out: Median MIC
Experimental: (§3) In this work, nine strains of C. albicans procured from Charlotte Maxeke Johannesburg Academic Hospital under ethical clearance number M000402 were employed (Table 1). All the C. albicans strains were preserved at −70° C. deep freezer in 50% (v/v) anhydrous glycerol (Sigma-Aldrich St. Louis, MO, U.S.A.). For conducting experiments, cultures were revived in Sabouraud Dextrose broth (SDB; Merck, Germany) at 37° C. and 120 rpm for 24 h. Additionally, the RPMI 1640 medium and MOPS (Sigma-Aldrich, USA) were prepared as described by the Clinical and Laboratory Standards Institute (CLSI).
(§4) The activity of C1 against Candida species (n=9) was first estimated in terms of minimum inhibitory concentration (MIC) and minimum fungicidal concentration (MFC). […] Briefly, stock solutions of Flz (used as reference; Sigma-Aldrich St. Louis, MO, U.S.A.) and the synthesized compound was prepared in 1% dimethyl sulfoxide (DMSO; Sigma-Aldrich St. Louis, MO, U.S.A.) and the test concentrations were formulated in RPMI 1640-MOPS medium. A two-fold dilution of the compound (1250-0.61 μg/mL) and reference drug (128-0.062 μg/mL) was prepared in 96 well plates which were then seeded with C. albicans inoculum (1×10^6 cells/mL) and incubated at 37° C. for 24 h. In every set of experiments, sterility control, 1% DMSO as negative control and growth control were included. Growth was quantified by reading the optical density at 620 nm in a UV-1800 SHIMADZU spectrophotometer (Shimadzu Corporation, Japan). The MIC was determined as the lowest concentration that inhibited the growth of Candida strains. To determine MFC, each well without visible growth was subcultured onto the SDA plates for 24 hours at 37° C. The lowest concentration killing ≥99.9% of Candida was taken as the MFC value of the test compound.

C. albicans 4554 = assay: Broth microdilution MIC/MFC (CLSI M27-A4); format: cell-based, Candida albicans; details: Candida albicans; C. albicans 4554 (Flz sensitive), 37° C., 24 h; read-out: Median MIC
Experimental: as §3, §4

C. albicans 4251 [6] = assay: Broth microdilution MIC/MFC (CLSI M27-A4); format: cell-based, Candida albicans; details: Candida albicans; C. albicans 4251 (Flz sensitive), 37° C., 24 h; read-out: Median MIC
Experimental: as §3, §4

C. albicans 4106 = assay: Broth microdilution MIC/MFC (CLSI M27-A4); format: cell-based, Candida albicans; details: Candida albicans; C. albicans 4106 (Flz resistant), 37° C., 24 h; read-out: Median MIC
Experimental: as §3, §4

C. albicans 5112 [7] = assay: Broth microdilution MIC/MFC (CLSI M27-A4); format: cell-based, Candida albicans; details: Candida albicans; C. albicans 5112 (Flz resistant), 37° C., 24 h; read-out: Median MIC
Experimental: as §3, §4

C. albicans 4324 = assay: Broth microdilution MIC/MFC (CLSI M27-A4); format: cell-based, Candida albicans; details: Candida albicans; C. albicans 4324 (Flz resistant), 37° C., 24 h; read-out: Median MIC
Experimental: as §3, §4

C. albicans 4180 = assay: Broth microdilution MIC/MFC (CLSI M27-A4); format: cell-based, Candida albicans; details: Candida albicans; C. albicans 4180 (Flz sensitive), 37° C., 24 h; read-out: Median MIC
Experimental: as §3, §4

C. albicans 4085 = assay: Broth microdilution MIC/MFC (CLSI M27-A4); format: cell-based, Candida albicans; details: Candida albicans; C. albicans 4085 (Flz resistant), 37° C., 24 h; read-out: Median MIC
Experimental: as §3, §4

C. albicans 4175 = assay: Broth microdilution MIC/MFC (CLSI M27-A4); format: cell-based, Candida albicans; details: Candida albicans; C. albicans 4175 (Flz sensitive), 37° C., 24 h; read-out: Median MIC
Experimental: as §3, §4

## OO [Complex H2O2, hydrogen peroxide, reference compound]
C. albicans 4251 [1]
  average fluorescence ratio JC-10 aggregates/JC-10 monomers: 2.5
C. albicans 5112 [2]
  average fluorescence ratio JC-10 aggregates/JC-10 monomers: 2.75
C. albicans 4251 [3]
  live cells: 19.9%
C. albicans 5112 [4]
  live cells: 26.1%
C. albicans 4251 [5]
  impact on the cell cycle: not much impact

## OC(Cn1cncn1)(Cn1cncn1)c1ccc(F)cc1F [Flz, fluconazole, reference compound]
C. albicans SC5314
  MIC: 0.25 µg/mL (≈ 0.816 µM)
C. albicans 4554
  MIC: 0.25 µg/mL (≈ 0.816 µM)
C. albicans 4251 [6]
  MIC: 0.5 µg/mL (≈ 1.63 µM)
C. albicans 4106
  MIC: 32 µg/mL (≈ 104 µM)
C. albicans 5112 [7]
  MIC: 64 µg/mL (≈ 209 µM)
C. albicans 4324
  MIC: 32 µg/mL (≈ 104 µM)
C. albicans 4180
  MIC: 0.25 µg/mL (≈ 0.816 µM)
C. albicans 4085
  MIC: 16 µg/mL (≈ 52.2 µM)
C. albicans 4175
  MIC: 0.25 µg/mL (≈ 0.816 µM)

## Oc1ccc(Br)cc1/C=N/c1ccc2c(c1)OCCO2 [L, (E)-4-bromo-2-{[(2,3-dihydrobenzo[b][1,4]dioxin-6-yl)imino]methyl}phenol]
other
  melting point: 119 °C
